From patent US9630949B2, “Oxoazetidine derivatives, process for the preparation thereof and use thereof in human medicine and in cosmetics” (GALDERMA RESEARCH & DEVELOPMENT, priority 2008, dated 2017) come the findings set out here.

The target of assay [1] is hMC1R (Homo sapiens (Human), UniProt Q01726). The assay can be described thus: Transactivation test: melanocortin receptors (pCRE-Luc luciferase reporter), hMC1R. The class given is cell-based. To be noted: HEK293 transfected with pCRE-Luc and hMC1R; products tested alone (agonist), 6 h incubation; % activity vs NDP-MSH 10 nM; IA: inactive. The method, then:
(§1) Transactivation Test: Melanocortin Receptors
(§2) HEK293 lines are transfected with the pCRE-Luc and hMC1R, hMC3R, hMC4R or hMC5R vectors. The cells are cultured at 37° C., 5% CO2, in DMEM medium supplemented with 10% of foetal calf serum.
(§3) In the presence of an activator (agonist), the melanocortin receptor will activate the cAMP pathway which, via the CRE-Luc vector, will result in the synthesis of luciferase. After the addition of a lysis buffer containing a luminescent substrate for luciferase, it will be possible to measure the luminescence proportional to the degree of activation or of inhibition of the receptor.
(§4) The products are solubilized at 10 mM in DMSO. They are tested in the form of dose-response at a final DMSO concentration of 0.1%. The range comprising 10 points and one zero begins at 10 μM with 4-fold dilutions. For testing agonists, the products are tested alone. For determining the behaviour of antagonists, the products of interest are tested in the presence of 1 nM NDP-MSH (reference agonist). The cells are seeded at a rate of 5000 cells per well (384 well plate) in serum-free DMEM medium, and incubated overnight at 37° C., 5% CO2.
(§5) The products and the reference ligand (NDP-MSH) are added the following day, and the plates are again incubated for 6 h at 37° C., 5% CO2. After the addition of lysis buffer containing luciferin, the plates are read on a Top-Count instrument. The results are standardized as % activity using the 100% (cells+NDP-MSH at 10 nM) and 0% (cells alone) controls. An EC50 is calculated for each product using the XLFit software. The results are given in nM.

Assay [2] addresses hMC4R (Homo sapiens (Human), UniProt P32245). The assay can be described thus: Transactivation test: melanocortin receptors (pCRE-Luc luciferase reporter), hMC4R. The class given is cell-based. The note with it: HEK293 transfected with pCRE-Luc and hMC4R; products tested alone (agonist), 6 h incubation; % activity vs NDP-MSH 10 nM; IA: inactive. The method, then:
as §1, §2, §3, §4, §5

Where a name gives a salt, the structure may show the parent alone.

Sequence of hMC1R (Q01726 whole entry): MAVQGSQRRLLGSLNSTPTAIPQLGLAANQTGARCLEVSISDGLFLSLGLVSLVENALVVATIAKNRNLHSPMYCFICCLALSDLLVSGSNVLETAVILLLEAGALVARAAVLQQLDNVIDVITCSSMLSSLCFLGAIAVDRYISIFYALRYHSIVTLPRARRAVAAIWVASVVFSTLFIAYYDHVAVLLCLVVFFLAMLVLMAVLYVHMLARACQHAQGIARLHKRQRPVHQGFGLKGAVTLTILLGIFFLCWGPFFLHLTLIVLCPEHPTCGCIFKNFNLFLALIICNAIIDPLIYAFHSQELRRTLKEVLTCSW
Sequence of hMC4R (P32245 whole entry): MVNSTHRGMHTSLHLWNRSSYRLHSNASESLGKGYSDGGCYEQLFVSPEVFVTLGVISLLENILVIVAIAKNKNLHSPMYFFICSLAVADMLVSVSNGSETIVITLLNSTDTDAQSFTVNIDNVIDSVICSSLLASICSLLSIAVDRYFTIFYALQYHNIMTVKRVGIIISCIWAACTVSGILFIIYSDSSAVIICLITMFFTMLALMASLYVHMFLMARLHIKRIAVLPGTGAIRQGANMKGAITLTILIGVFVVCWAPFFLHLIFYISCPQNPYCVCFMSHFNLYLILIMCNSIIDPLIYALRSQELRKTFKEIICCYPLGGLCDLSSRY

In general, EC50 refers to the midpoint of the concentration-response curve. Turning to `CCCC(=O)OC1(c2ccccc2)CN(C(=O)[C@H](Cc2ccc(OC)cc2)NC(=O)[C@H](Cc2c[nH]cn2)NC(=O)c2ccccc2)C1` [Compound 1, 1-[(S)-2-[(S)-2-benzoylamino-3-(1H-imidazol-4-yl)propionylamino]-3-(4-methoxyphenyl)propionyl]-3-phenylazetidin-3-yl ester of butyric acid], the EC50 in assay [1] was 0.5 µM.

For `CCCCOC1(c2ccccc2C)CN(C(=O)[C@H](Cc2ccc(OC)cc2)NC(=O)[C@H](Cc2c[nH]cn2)NC(=O)c2ccccc2)C1` [Compound 2, N-[(S)-1-[(S)-2-(3-butoxy-3-o-tolylazetidin-1-yl)-1-(4-methoxybenzyl)-2-oxoethylcarbamoyl]-2-(1H-imidazol-4-yl)ethyl]benzamide], the EC50 came to 0.03 µM in assay [1] and 8 µM in assay [2].

For the compound `CCCCOC1(c2ccccc2)CN(C(=O)[C@H](Cc2ccc(OC)cc2)NC(=O)[C@H](Cc2c[nH]cn2)NC(=O)c2ccccc2)C1` [Compound 3, N-[(S)-1-[(S)-2-(3-butoxy-3-phenylazetidin-1-yl)-1-(4-methoxybenzyl)-2-oxoethylcarbamoyl]-2-(1H-imidazol-4-yl)ethyl]benzamide], the 50% effective concentration (EC50) in assay [1] worked out at 0.06 µM; in assay [2], 4 µM.

With `COc1ccc(C[C@H](NC(=O)[C@H](Cc2c[nH]cn2)NC(=O)c2ccccc2)C(=O)N2CC(O)(c3ccccc3C)C2)cc1` [Compound 4, N-[(S)-1-[(S)-2-(3-hydroxy-3-o-tolylazetidin-1-yl)-1-(4-methoxybenzyl)-2-oxoethylcarbamoyl]-2-(1H-imidazol-4-yl)ethyl]benzamide], the EC50 in assay [1] was 0.25 µM; in assay [2] it was 4 µM.

For `COc1ccc(C[C@H](NC(=O)[C@H](Cc2c[nH]cn2)NC(=O)c2ccccc2)C(=O)N2CC(OC(C)=O)(c3ccccc3C)C2)cc1` [Compound 5, 1-[(S)-2-[(S)-2-benzoylamino-3-(1H-imidazol-4-yl)propionylamino]-3-(4-methoxyphenyl)propionyl]-3-o-tolylazetidin-3-yl acetate], the values for the EC50 in assay [1] and in assay [2] were 4 µM and 8 µM, respectively.

For `CCCC(=O)OC1(c2ccc(F)cc2)CN(C(=O)[C@H](Cc2ccc(OC)cc2)NC(=O)[C@H](Cc2c[nH]cn2)NC(=O)c2ccccc2)C1` [Compound 6, 1-[(S)-2-[(S)-2-benzoylamino-3-(1H-imidazol-4-yl)propionylamino]-3-(4-methoxyphenyl)propionyl]-3-(4-fluorophenyl)azetidin-3-yl ester of butyric acid], the concentration giving a half-maximal response (EC50) was determined as 2 µM in assay [1] and 8 µM in assay [2].

In the case of `COc1ccc(C[C@H](NC(=O)[C@H](Cc2c[nH]cn2)NC(=O)c2ccccc2)C(=O)N2CC(O)(C3CCCCC3)C2)cc1` [Compound 7, N-[(S)-1-[(S)-2-(3-cyclohexyl-3-hydroxyazetidin-1-yl)-1-(4-methoxybenzyl)-2-oxoethylcarbamoyl]-2-(1H-imidazol-4-yl)ethyl]benzamide], the EC50 in assay [1] was determined as 0.5 µM; in assay [2], 4 µM.

Compound `COc1ccc(C[C@H](NC(=O)CCc2c[nH]cn2)C(=O)N2CC(O)(C3CCCCC3)C2)cc1` [Compound 10, N-[(S)-2-(3-cyclohexyl-3-hydroxyazetidin-1-yl)-1-(4-methoxybenzyl)-2-oxoethyl]-3-(1H-imidazol-4-yl)propionamide] had an EC50 in assay [1] of 8 µM.

In the case of `O=C(CCc1c[nH]cn1)N[C@H](Cc1ccc(Cl)c(Cl)c1)C(=O)N1CC(O)(c2ccccc2)C1` [Compound 12, N-[(R)-1-(3,4-dichlorobenzyl)-2-(3-hydroxy-3-phenylazetidin-1-yl)-2-oxoethyl]-3-(1H-imidazol-4-yl)propionamide], a half-maximal response in assay [1] (EC50) required 8 µM.

For the compound `CCCOC1(c2ccccc2C)CN(C(=O)[C@H](Cc2ccc(OC)cc2)NC(=O)CCc2c[nH]cn2)C1` [Compound 21, N-[(S)-1-(4-methoxybenzyl)-2-oxo-2-(3-propoxy-3-o-tolylazetidin-1-yl)ethyl]-3-(1H-imidazol-4-yl)propionamide], in assay [1], the midpoint of the response, the EC50, lay at 4 µM.

In the case of `COc1ccc(C[C@@H](NC(=O)CCc2c[nH]cn2)C(=O)N2CC(O)(c3ccccc3C)C2)cc1` [Compound 29, N-[(R)-2-(3-hydroxy-3-o-tolylazetidin-1-yl)-1-(4-methoxybenzyl)-2-oxoethyl]-3-(1H-imidazol-4-yl)propionamide], the concentration for a half-maximal effect (EC50) in assay [1] is 1 µM.

The compound `CCCCCC1(c2ccc(F)cc2)CN(C(=O)[C@@H](Cc2ccc(OC)cc2)NC(=O)CCc2c[nH]cn2)C1` [Compound 38, N-[(R)-2-[3-(4-fluorophenyl)-3-pentylazetidin-1-yl]-1-(4-methoxybenzyl)-2-oxoethyl]-3-(1H-imidazol-4-yl)propionamide] displayed an EC50 in assay [1] of 0.25 µM.

As to `CCCCCC1(c2ccccc2F)CN(C(=O)[C@@H](Cc2ccc(OC)cc2)NC(=O)CCc2c[nH]cn2)C1` [Compound 43, N-[(R)-2-[3-(2-fluorophenyl)-3-pentylazetidin-1-yl]-1-(4-methoxybenzyl)-2-oxoethyl]-3-(1H-imidazol-4-yl)propionamide], in assay [1], the midpoint of the response, the EC50, lay at 0.03 µM.

For `CCCCCC1(c2ccccc2Cl)CN(C(=O)[C@@H](Cc2ccc(OC)cc2)NC(=O)CCc2c[nH]cn2)C1` [Compound 44, N-[(R)-2-[3-(2-chlorophenyl)-3-pentylazetidin-1-yl]-1-(4-methoxybenzyl)-2-oxoethyl]-3-(1H-imidazol-4-yl)propionamide], the concentration giving a half-maximal response (EC50) in assay [1] was found to be 0.03 µM.

`CCCCCC1(c2ccccc2)CN(C(=O)[C@@H](Cc2ccc(C(F)(F)F)cc2)NC(=O)CCc2c[nH]cn2)C1` [Compound 51, N-[(R)-2-oxo-2-(3-pentyl-3-phenylazetidin-1-yl)-1-(4-trifluoromethylbenzyl)ethyl]-3-(1H-imidazol-4-yl)propionamide] gave a concentration for a half-maximal effect (EC50) in assay [1] of 1 µM.

Turning to `CCCCCC1(c2ccc(Cl)c(Cl)c2)CN(C(=O)[C@@H](Cc2ccc(OC)cc2)NC(=O)CCc2c[nH]cn2)C1` [Compound 54, N-[(R)-2-[3-(3,4-dichlorophenyl)-3-pentylazetidin-1-yl]-1-(4-methoxybenzyl)-2-oxoethyl]-3-(1H-imidazol-4-yl)propionamide], in assay [1], the response was half-maximal at 0.25 µM (EC50).

`CCCCOC1(c2ccccc2C)CN(C(=O)C(Cc2ccc(OC)cc2)NC(=O)CC(CCC)c2c[nH]cn2)C1` (centres unmarked) [Compound 62, N-[2-(3-butoxy-3-o-tolylazetidin-1-yl)-1-(4-methoxybenzyl)-2-oxoethyl]-3-(1H-imidazol-4-yl)hexyramide] showed an EC50 in assay [2] of 0.5 µM.

For `CCCCOC1(c2ccccc2C)CN(C(=O)C(Cc2ccc(Cl)cc2Cl)NC(=O)CC(CCC)c2c[nH]cn2)C1` (centres unmarked) [Compound 65, N-[2-(3-butoxy-3-o-tolylazetidin-1-yl)-1-(2,4-dichlorobenzyl)-2-oxoethyl]-3-(1H-imidazol-4-yl)hexyramide], in assay [2], the midpoint of the response, the EC50, lay at 0.1 µM.

In the case of `CCCCOC1(c2ccccc2C)CN(C(=O)C(Cc2ccc(OC)cc2O)NC(=O)CCc2cnc[nH]2)C1` (centres unmarked) [Compound 70, N-[2-(3-Butoxy-3-o-tolylazetidin-1-yl)-1-(2-hydroxy-4-methoxybenzyl)-2-oxoethyl]-3-(3H-imidazol-4-yl)propionamide trifluoroacetate], the EC50 in assay [1] turned out to be 4 µM.

In assay [1], `CCCCOC1(c2ccccc2C)CN(C(=O)[C@@H](Cc2ccc(O)cc2)NC(=O)CCc2cnc[nH]2)C1` [Compound 72, N-[(R)-2-(3-Butoxy-3-o-tolylazetidin-1-yl)-1-(4-hydroxybenzyl)-2-oxoethyl]-3-(3H-imidazol-4-yl)propionamide] came in with an EC50 of 2 µM.
